Test results: publication PMC3561163 (PLoS Neglected Tropical Diseases, 2013)
Marks after values point to notes of the source that are not given here.

Experiments:
[1] = test system: 14 different HLA class II molecules; assay type: binding, human
[2] = test system: PBMCs from YF-17DD vaccinees; assay type: cell-based, human
[3] = test system: CD4^+ depleted PBMCs from YF-17DD vaccinees; assay type: cell-based, human
[4] = test system: CD8^+ T-cells isolated from HLA-A*0201 positive individuals; assay type: cell-based, human

| Compound | Level of peptide promiscuity [1] | Total DR bound [1] | ELISPOT Max [2] [SFC/10^6 PBMC] | ELISPOT Min [2] [SFC/10^6 PBMC] | No. of responders [2] | Recognition frequency (%) (Table S1) [2] | IFN-γ SFC Average ± STDEV [3] | IFN-γ SFC Median [3] | No. of responders (CD4-depleted PBMCs) [3] | T-cell activation by 9-mers covering NS4b77–91 [2] | yield of cellular proliferation of the CD8^+ T-cell population expanded by aAPCs [4] |
| --- | --- | --- | --- | --- | --- | --- | --- | --- | --- | --- | --- |
| CC[C@H](C)[C@H](NC(=O)CNC(=O)[C@H](CCCCN)NC(=O)[C@H](CC(N)=O)NC(=O)[C@@H](NC(=O)[C@H](C)NC(=O)[C@H](C)NC(=O)[C@@H](NC(=O)[C@H](CC(C)C)NC(=O)[C@H](CC(=O)O)NC(=O)[C@H](CC(=O)O)NC(=O)[C@H](C)N)[C@@H](C)O)[C@@H](C)CC)C(=O)N[C@@H](CC(C)C)C(=O)N[C@H](C(=O)N[C@H](C(=O)O)[C@@H](C)O)C(C)C [Env337–351] | intermediate (key: low (affinity to 2 to 5 HLA class II molecules bound); intermediate (affinity to 6 to 9 HLA class II molecules bound); highly promiscuous (binding to ≥10 HLA molecules)) | 9 | 30 | 12 | 3 | 17 | – | – | – | – | – |
| CC[C@H](C)[C@H](NC(=O)CNC(=O)[C@H](CCCCN)NC(=O)[C@@H](N)CC(N)=O)C(=O)N[C@@H](CC(C)C)C(=O)N[C@H](C(=O)N[C@H](C(=O)N[C@H](C(=O)N[C@@H](CC(N)=O)C(=O)N1CCC[C@H]1C(=O)N[C@H](C(=O)N[C@@H](C)C(=O)N[C@@H](CO)C(=O)N[C@H](C(=O)N[C@@H](CC(N)=O)C(=O)O)[C@@H](C)O)[C@@H](C)CC)C(C)C)[C@@H](C)O)C(C)C [Env345–359] | highly promiscuous (key: low (affinity to 2 to 5 HLA class II molecules bound); intermediate (affinity to 6 to 9 HLA class II molecules bound); highly promiscuous (binding to ≥10 HLA molecules)) | 13 | 271 | 10 | 9 | 33 | 315±160 SFC (CD4-depleted PBMCs/10^6) | 287 SFC (CD4-depleted PBMCs/10^6) | 3 | – | – |
| CC[C@H](C)[C@H](NC(=O)[C@H](CC(C)C)NC(=O)[C@@H](NC(=O)[C@H](CCC(=O)O)NC(=O)[C@@H](N)CC(=O)O)C(C)C)C(=O)N[C@@H](CCC(=O)O)C(=O)N[C@H](C(=O)N[C@@H](CC(N)=O)C(=O)N1CCC[C@H]1C(=O)N1CCC[C@H]1C(=O)N[C@@H](Cc1ccccc1)C(=O)NCC(=O)N[C@@H](CC(=O)O)C(=O)N[C@@H](CO)C(=O)N[C@@H](Cc1ccc(O)cc1)C(=O)O)C(C)C [Env361–375] | – | 10 | 203 | 14 | 4 | 15 | 16±0 SFC (CD4-depleted PBMCs/10^6) | 16 SFC (CD4-depleted PBMCs/10^6) | 2 | – | – |
| CSCC[C@H](NC(=O)[C@@H](NC(=O)[C@@H](N)C(C)C)C(C)C)C(=O)N[C@H](C(=O)N[C@@H](CO)C(=O)N[C@@H](CC(C)C)C(=O)N[C@@H](C)C(=O)N[C@@H](CC(C)C)C(=O)N[C@H](C(=O)NCC(=O)N[C@@H](C)C(=O)N[C@@H](C)C(=O)N[C@@H](CC(C)C)C(=O)N[C@@H](Cc1c[nH]cn1)C(=O)N1CCC[C@H]1C(=O)O)C(C)C)[C@@H](C)O [NS2b97–111] | intermediate (key: low (affinity to 2 to 5 HLA class II molecules bound); intermediate (affinity to 6 to 9 HLA class II molecules bound); highly promiscuous (binding to ≥10 HLA molecules)) | 7 | 26 | 10 | 6 | 10 | – | – | – | – | – |
| CC[C@H](C)[C@H](NC(=O)[C@@H](NC(=O)[C@H](CCC(=O)O)NC(=O)CNC(=O)[C@H](CC(N)=O)NC(=O)[C@H](CCCNC(=N)N)NC(=O)[C@H](CC(N)=O)NC(=O)[C@@H](NC(=O)[C@@H](NC(=O)[C@@H]1CCCN1C(=O)[C@H](CO)NC(=O)CNC(=O)[C@H](CO)NC(=O)[C@@H](NC(=O)CN)[C@@H](C)O)[C@@H](C)CC)C(C)C)C(C)C)C(=O)O [NS3_137–151] | – | 1 | 137 | 18 | 5 | 11 | – | – | 0 | – | – |
| CSCC[C@H](NC(=O)[C@H](C)NC(=O)[C@H](CCSC)NC(=O)[C@@H](N)CCCNC(=N)N)C(=O)N[C@H](C(=O)N[C@@H](CC(=O)O)C(=O)N[C@H](C(=O)N[C@H](C(=O)N1CCC[C@H]1C(=O)N[C@@H](Cc1ccccc1)C(=O)NCC(=O)N[C@@H](CCC(N)=O)C(=O)N[C@@H](CCC(N)=O)C(=O)N[C@@H](CCCNC(=N)N)C(=O)N[C@H](C(=O)O)C(C)C)[C@@H](C)O)[C@@H](C)O)[C@@H](C)O [NS5_341–355] | low (key: low (affinity to 2 to 5 HLA class II molecules bound); intermediate (affinity to 6 to 9 HLA class II molecules bound); highly promiscuous (binding to ≥10 HLA molecules)) | 4 | 267 | 27 | 6 | 12 | – | – | 0 | – | – |
| CC(C)[C@H](NC(=O)[C@H](CCCNC(=N)N)NC(=O)[C@H](CCC(N)=O)NC(=O)[C@H](CCC(N)=O)NC(=O)CNC(=O)[C@H](Cc1ccccc1)NC(=O)[C@@H]1CCCN1C(=O)[C@@H](NC(=O)[C@@H](NC(=O)[C@H](CC(=O)O)NC(=O)[C@@H](N)[C@@H](C)O)[C@@H](C)O)[C@@H](C)O)C(=O)N[C@@H](Cc1ccccc1)C(=O)N[C@@H](CCCCN)C(=O)N[C@@H](CCC(=O)O)C(=O)N[C@@H](CCCCN)C(=O)O [NS5_345–359] | low (key: low (affinity to 2 to 5 HLA class II molecules bound); intermediate (affinity to 6 to 9 HLA class II molecules bound); highly promiscuous (binding to ≥10 HLA molecules)) | 2 | 914 | 55 | 8 | 17 | 66±71 SFC (CD4-depleted PBMCs/10^6) | 32 SFC (CD4-depleted PBMCs/10^6) | 3 | – | – |
| CC[C@H](C)[C@H](NC(=O)[C@H](C)NC(=O)[C@H](CCCNC(=N)N)NC(=O)[C@H](CO)NC(=O)CNC(=O)[C@H](CCCCN)NC(=O)[C@H](C)NC(=O)[C@H](CCCCN)NC(=O)CNC(=O)[C@H](Cc1ccccc1)NC(=O)[C@@H](N)CCC(=O)O)C(=O)N[C@@H](Cc1c[nH]c2ccccc12)C(=O)N[C@@H](Cc1ccc(O)cc1)C(=O)N[C@@H](CCSC)C(=O)N[C@@H](Cc1c[nH]c2ccccc12)C(=O)O [NS5_465–479] | intermediate (key: low (affinity to 2 to 5 HLA class II molecules bound); intermediate (affinity to 6 to 9 HLA class II molecules bound); highly promiscuous (binding to ≥10 HLA molecules)) | 7 | 1593 | 10 | 6 | 12 | 168±0 SFC (CD4-depleted PBMCs/10^6) | 168 SFC (CD4-depleted PBMCs/10^6) | 2 | – | – |
| CC[C@H](C)[C@H](NC(=O)[C@H](C)NC(=O)[C@H](CCCNC(=N)N)NC(=O)[C@H](CO)NC(=O)CNC(=O)[C@H](CCCCN)NC(=O)[C@H](C)N)C(=O)N[C@@H](Cc1c[nH]c2ccccc12)C(=O)N[C@@H](Cc1ccc(O)cc1)C(=O)N[C@@H](CCSC)C(=O)N[C@@H](Cc1c[nH]c2ccccc12)C(=O)N[C@@H](CC(C)C)C(=O)NCC(=O)N[C@@H](C)C(=O)N[C@@H](CCCNC(=N)N)C(=O)O [NS5_469–483] | highly promiscuous (key: low (affinity to 2 to 5 HLA class II molecules bound); intermediate (affinity to 6 to 9 HLA class II molecules bound); highly promiscuous (binding to ≥10 HLA molecules)) | 10 | 1828 | 13 | 8 | 17 | – | – | – | – | – |
| CC(C)C[C@H](NC(=O)[C@H](C)NC(=O)[C@H](CCC(=O)O)NC(=O)[C@H](Cc1ccccc1)NC(=O)[C@H](CCC(=O)O)NC(=O)[C@H](CC(C)C)NC(=O)[C@H](Cc1ccc(O)cc1)NC(=O)[C@H](CCCNC(=N)N)NC(=O)[C@H](C)NC(=O)CN)C(=O)NCC(=O)N[C@@H](Cc1ccccc1)C(=O)N[C@@H](CC(C)C)C(=O)N[C@@H](CC(N)=O)C(=O)N[C@@H](CCC(=O)O)C(=O)O [NS5_481–495] | highly promiscuous (key: low (affinity to 2 to 5 HLA class II molecules bound); intermediate (affinity to 6 to 9 HLA class II molecules bound); highly promiscuous (binding to ≥10 HLA molecules)) | 10 | 1022 | 13 | 11 | 23 | 95±0 SFC (CD4-depleted PBMCs/10^6) | 95 SFC (CD4-depleted PBMCs/10^6) | 2 | – | – |
| LWNGPMAVS [NS4b77–85] | – | – | – | – | – | – | – | – | – | induced the most T-cell activation | 2×10^6 |
